Experimental findings from patent EP1075471B1, “INDOLYL DERIVATIVES AS SEROTONERGIC AGENTS” (Wyeth, priority 1998, dated 1999) are described below.

For this experiment, the target named is T1, serotonin transporter (Rattus norvegicus, UniProt P31652).
T1 construct: frontal cortical membranes prepared from male S.D. rats; from tissue; host or cells: rat frontal cortex membranes (male Sprague-Dawley rats)
In words: 3H-Paroxetine binding to assess affinity for the serotonin transporter. Here is the method:
The affinity of drugs for the serotonin transporter was determined by assessing the ability of agents to displace specifically bound 3H-paroxetine binding from rat cortical membranes. […] Nonspecific binding was determined using fluoxetine.
^3H-Paroxetine Binding to Assess Affinity of Drugs for the Serotonin Transporter:
Briefly, frontal cortical membranes prepared from male S.D. rats were incubated with ^3H-paroxetine (0.1 nM) for 60 min at 25°C. All tubes also contained either vehicle, test compound (one to eight concentrations), or a saturating concentration of fluoxetine (10 µM) to define […]. All reactions are terminated by the addition of ice cold Tris buffer followed by rapid filtration using a Tom Tech filtration device to separate bound from free ^3H-paroxetine.

Like-named read-outs stand apart in the source and are kept apart here.

T1 sequence (P31652 whole entry): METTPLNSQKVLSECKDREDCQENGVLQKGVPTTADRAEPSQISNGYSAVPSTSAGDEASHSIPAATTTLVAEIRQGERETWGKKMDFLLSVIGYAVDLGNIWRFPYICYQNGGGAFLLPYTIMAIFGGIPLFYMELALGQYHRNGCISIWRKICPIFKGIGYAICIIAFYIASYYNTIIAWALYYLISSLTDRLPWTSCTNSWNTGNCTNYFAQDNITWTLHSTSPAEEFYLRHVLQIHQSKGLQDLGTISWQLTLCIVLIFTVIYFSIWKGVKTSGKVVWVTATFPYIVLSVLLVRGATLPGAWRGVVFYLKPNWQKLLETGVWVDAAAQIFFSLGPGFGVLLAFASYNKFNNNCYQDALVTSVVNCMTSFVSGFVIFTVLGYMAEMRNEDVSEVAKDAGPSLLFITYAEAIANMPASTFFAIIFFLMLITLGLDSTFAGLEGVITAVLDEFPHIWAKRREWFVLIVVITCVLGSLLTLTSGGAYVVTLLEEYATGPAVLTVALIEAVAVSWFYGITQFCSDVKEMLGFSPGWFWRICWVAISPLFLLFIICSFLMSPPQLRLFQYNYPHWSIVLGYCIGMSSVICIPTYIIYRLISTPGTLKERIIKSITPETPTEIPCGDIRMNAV

As usually defined, the Ki is the dissociation constant of the complex between target and ligand, obtained from inhibition or displacement. `OC(CN1CC=C(c2c[nH]c3ccccc23)CC1)Cn1ccc2cc(F)ccc21` (stereo not shown) [Example 8, 1-(5-Fluoro-indol-1-yl)-3-[4-(1H-indol-3-yl)-3,6-dihydro-2H-pyridin-1-yl]-propan-2-ol] returned a Ki of 1.4 nM.
Same read-out and setting: with `OC(CN1CC=C(c2c[nH]c3ccccc23)CC1)Cn1ccc2c(F)cccc21` (stereo not shown) [Example 10, 1-(4-Fluoro-indol-1-yl)-3-[4-(1H-indol-3-yl)-3,6-dihydro-2H-pyridin-1-yl]-propan-2-ol] the figure was 0.01 nM; with `COc1cccc2c1ccn2CC(O)CN1CC=C(c2c[nH]c3ccccc23)CC1` (stereo not shown) [Example 11, 1-[4-(1H-Indol-3-yl)-3,6-dihydro-2H-pyridin-1-yl]-3-(4-methoxy-indol-1-yl)-propan-2-ol], 0.04 nM.
Turning to `OC(CN1CC=C(c2c[nH]c3ccccc23)CC1)Cn1ccc2ccccc21` (stereo not shown) [Example 12, 1-Indol-1-yl-3-[4-(1H-indol-3-yl)-3,6-dihydro-2H-pyridin-1-yl]-propan-2-ol], for the setting “read-out: Inhibition of [3H]-Paroxetine binding Ki, compounds of formula (1), rat frontal cortical membranes, 3H-paroxetine 0.1 nM, 60 min at 25°C, nonspecific binding with fluoxetine 10 µM”, the Ki amounted to 1.7 nM.
`Cc1nc2ccccc2n1CC(O)CN1CC=C(c2c[nH]c3ccccc23)CC1` (stereo not shown) [Example 13, 1-[4-(1H-Indol-3-yl)-3,6-dihydro-2H-pyridin-1-yl]-3-(2-methyl-benzoimidazol-1-yl)-propan-2-ol]: the Ki came out at 0.4 nM.
Same read-out and setting: with `COc1cccc2c1ccn2C[C@@H](O)CN1CC=C(c2c[nH]c3ccccc23)CC1` [Example 14, (2S)-1-[4-(1H-Indol-3-yl)-3,6-dihydro-2H-pyridin-1-yl]-3-(4-methoxy-indol-1-yl)-propan-2-ol] the figure was 0.03 nM; with `O[C@@H](CN1CC=C(c2c[nH]c3ccccc23)CC1)Cn1ccc2c(F)cccc21` [Example 15, (2S)-1-(4-Fluoro-indol-1-yl)-3-[4-(1H-indol-3-yl)-3,6-dihydro-2H-pyridin-1-yl]-propan-2-ol], 0.3 nM.
